{"source": "patent US7335669B2", "about": "“Use of dihydroquinoline to aid in increasing milk production and feed utilization” (Novus International, Inc., priority 2002, dated 2008)", "key": {"[1]": {"assay": "Detection of ethoxyquin in milk from cattle treated by the method", "assay_type": "in vivo", "from_the_text": "Of course, measurement of chemical levels has limitations. […] In any event, the level of ethoxyquin in the milk produced according to this invention certainly is less than 0.1 ppm by weight."}, "broilers and layers": {"test_system": "broilers and layers", "details": "cited from earlier work"}, "[2]": {"details": "about 125 to about 150 ppm by weight on DMI basis in diet of dairy cattle; cited from earlier work"}, "cows": {"test_system": "cows", "assay": "Example 1: two-week feeding regimen at four ethoxyquin concentration levels, twenty-four cows", "assay_type": "in vivo", "from_the_text": "Each of twenty-four cows was randomly assigned to a feeding regimen of one of four concentration levels of ethoxyquin (0 ppm, 50 ppm, 100 ppm, and 150 ppm by weight on an as fed basis) for a two-week treatment period. Data were collected before and after the feeding regimen. The results were as follows, wherein the ethoxyquin concentration (“Ethox. Dose”) is presented in ppm by weight, on an as fed basis and “TMR” represents the total mixed ration consumed by the cows in pounds per day: […]"}, "[3]": {"details": "poultry and lambs, dietary ethoxyquin; cited from earlier work"}, "lactating dairy cows": {"test_system": "lactating dairy cows", "assay": "Example 2: switch-over pen trial, ethoxyquin 65 ppm in feed for three weeks, approximately 2400 lactating dairy cows", "assay_type": "in vivo", "from_the_text": "Approximately 2400 lactating dairy cows were divided into two treatment groups of four pens per group. The cows in one of the two groups were fed ethoxyquin (at a concentration of 65 ppm by weight based on the weight of the total feed fed to the cows) for three weeks, with the four pens of the other group serving as controls. For the next two weeks, neither of the groups was fed ethoxyquin. The pens were then switched so that the previous control group was fed ethoxyquin (at a concentration of 65 ppm by weight based on the weight of the total feed fed to the cows) for three weeks. Milk production and feed intake were measured and feed efficiencies were calculated. The following table reports the means and pooled SEM results after correction for pen effects (wherein “Treated” refers to the cows receiving the ethoxyquin): […]"}, "[4]": {"details": "ethoxyquin 50 ppm by weight as fed basis"}, "[5]": {"details": "ethoxyquin 100 ppm as fed basis"}, "[6]": {"details": "ethoxyquin 100 ppm by weight as fed basis"}, "[7]": {"details": "ethoxyquin 150 ppm as fed basis"}, "[8]": {"details": "ethoxyquin 150 ppm by weight as fed basis"}, "[9]": {"details": "ethoxyquin 65 ppm by weight of total feed, three weeks, mean after correction for pen effects"}}}
{"smiles": "CCOc1ccc2c(c1)C(C)=CC(C)(C)N2", "note": "[ethoxyquin, 6-ethoxy-1,2-dihydro-2,2,4-trimethylquinoline]", "values": [{"measurement": "Ethoxyquin detected in milk", "setting": "[1]; milk from cattle treated by the method of the invention", "value": "no ethoxyquin has been detected"}, {"measurement": "Level of ethoxyquin in the milk", "setting": "[1]; milk produced according to the invention", "value": "less than 0.1 ppm by weight"}, {"measurement": "Effectiveness relative to alpha-tocopherol acetate", "setting": "broilers and layers; broiler study, 150 ppm ethoxyquin in feed", "value": "as effective as about 15 ppm alpha-tocopherol acetate"}, {"measurement": "Lipid oxidation in muscle tissues", "setting": "broilers and layers; dietary ethoxyquin, broilers 75 to 150 ppm, layers 500 ppm in feed", "value": "prevent lipid oxidation in muscle tissues in broilers and layers"}, {"measurement": "Ethoxyquin residue in milk", "setting": "[2]", "value": "appearance of ethoxyquin in the fat of the resulting milk"}, {"measurement": "Enhancement of milk production, comparison of concentrations", "setting": "cows; 50 ppm vs 150 ppm by weight, as fed basis", "value": "50 ppm has yielded greater enhancement of milk production than has 150 ppm"}, {"measurement": "Feed Intake (as fed basis), TMR in First Week", "setting": "cows; ethoxyquin 50 ppm as fed basis", "value": 91, "unit": "pounds per day"}, {"measurement": "Milk Production Based on Feed Efficiency, Lbs. Milk / TMR in First Week", "setting": "cows; ethoxyquin 50 ppm as fed basis", "value": "0.87 lbs. Milk Produced/pounds TMR Intake"}, {"measurement": "Feed Intake (as fed basis), TMR in Second Week", "setting": "cows; ethoxyquin 50 ppm as fed basis", "value": 91, "unit": "pounds per day"}, {"measurement": "Milk Production Based on Feed Efficiency, Lbs. Milk / TMR in Second Week", "setting": "cows; ethoxyquin 50 ppm as fed basis", "value": "0.91 lbs. Milk Produced/pounds TMR Intake"}, {"measurement": "Milk Produced During First Week", "setting": "cows; [4]", "value": 79, "unit": "lbs./day"}, {"measurement": "Milk Produced During Second Week", "setting": "cows; [4]", "value": 82, "unit": "lbs./day"}, {"measurement": "Feed Intake (as fed basis), TMR in First Week", "setting": "cows; [5]", "value": 92, "unit": "pounds per day"}, {"measurement": "Milk Production Based on Feed Efficiency, Lbs. Milk / TMR in First Week", "setting": "cows; [5]", "value": "0.80 lbs. Milk Produced/pounds TMR Intake"}, {"measurement": "Feed Intake (as fed basis), TMR in Second Week", "setting": "cows; [5]", "value": 91, "unit": "pounds per day"}, {"measurement": "Milk Production Based on Feed Efficiency, Lbs. Milk / TMR in Second Week", "setting": "cows; [5]", "value": "0.79 lbs. Milk Produced/pounds TMR Intake"}, {"measurement": "Milk Produced During First Week", "setting": "cows; [6]", "value": 74, "unit": "lbs./day"}, {"measurement": "Milk Produced During Second Week", "setting": "cows; [6]", "value": 72, "unit": "lbs./day"}, {"measurement": "Feed Intake (as fed basis), TMR in First Week", "setting": "cows; [7]", "value": 92, "unit": "pounds per day"}, {"measurement": "Milk Production Based on Feed Efficiency, Lbs. Milk / TMR in First Week", "setting": "cows; [7]", "value": "0.76 lbs. Milk Produced/pounds TMR Intake"}, {"measurement": "Feed Intake (as fed basis), TMR in Second Week", "setting": "cows; [7]", "value": 92, "unit": "pounds per day"}, {"measurement": "Milk Production Based on Feed Efficiency, Lbs. Milk / TMR in Second Week", "setting": "cows; [7]", "value": "0.80 lbs. Milk Produced/pounds TMR Intake"}, {"measurement": "Milk Produced During First Week", "setting": "cows; [8]", "value": 70, "unit": "lbs./day"}, {"measurement": "Milk Produced During Second Week", "setting": "cows; [8]", "value": 74, "unit": "lbs./day"}, {"measurement": "Ethoxyquin in muscle tissue", "setting": "[3]", "value": "detected in the muscle tissue of poultry and lambs"}, {"measurement": "Difference in milk production, treated vs control", "setting": "lactating dairy cows; ethoxyquin 65 ppm", "value": "little difference in milk production"}, {"measurement": "Feed Efficiency As Fed Basis", "setting": "lactating dairy cows; ethoxyquin 65 ppm by weight of total feed, three weeks, calculated from milk production and feed intake", "value": 0.89}, {"measurement": "Feed Intake As Fed Basis", "setting": "lactating dairy cows; [9]", "value": 93.5, "unit": "lbs./day"}, {"measurement": "Feed Intake DMI Basis", "setting": "lactating dairy cows; [9]", "value": 60.3, "unit": "lbs./day"}, {"measurement": "Milk Production", "setting": "lactating dairy cows; [9]", "value": 83.4, "unit": "lbs./day"}, {"measurement": "Improvement in feed efficiency (pounds of milk produced per pounds of TMR intake)", "setting": "lactating dairy cows; ethoxyquin 65 ppm vs control, printed as on a dry matter basis", "value": 4.7, "unit": "%"}]}
